# Bridge positions count the residues as written; N and C are the ends. Square brackets hold non-standard residues; d marks the D form. Peptide text beside a SMILES is read from it. * marks the point of attachment. ξ: configuration not given here. Phe(4-COOH) = N[C@@H](Cc1ccc(C(=O)O)cc1)C(=O)O; Bip = N[C@@H](Cc1ccc(-c2ccccc2)cc1)C(=O)O; Phe(3-Cl) = N[C@@H](Cc1cccc(Cl)c1)C(=O)O; Morpholine(3S-CO) = O=C(O)[C@@H]1COCCN1; Phe(3-Me) = Cc1cccc(C[C@H](N)C(=O)O)c1; Phe(4-F) = N[C@@H](Cc1ccc(F)cc1)C(=O)O; dBta = N[C@H](Cc1csc2ccccc12)C(=O)O; Val(3-OH) = CC(C)(O)[C@H](N)C(=O)O; 3Pal = N[C@@H](Cc1cccnc1)C(=O)O; 4Pal = N[C@@H](Cc1ccncc1)C(=O)O; 2Thi = N[C@@H](Cc1cccs1)C(=O)O; Cha = N[C@@H](CC1CCCCC1)C(=O)O; Cit = NC(=O)NCCC[C@H](N)C(=O)O; Ile(3ξ) = CCC(C)[C@H](N)C(=O)O; Thr(3ξ) = CC(O)[C@H](N)C(=O)O; Carboxymethyl = O=C(O)C*; NMeA = CN[C@@H](C)C(=O)O; Orn = NCCC[C@H](N)C(=O)O; Dab = NCC[C@H](N)C(=O)O; Dap = NC[C@H](N)C(=O)O; NH(CH2)3NH2 = NCCCN*
# Target: T1, PE-labeled human PD-L1-Ig binding to Jurkat cell line over-expressing human PD-1 (Jurkat-PD-1) (Homo sapiens, UniProt Q15116)
# T1 construct: expressed in transfected cells; host or cells: Jurkat
# Assay: Jurkat-PD-1 Cell Binding High-Content Screening Assay (CBA): Method 1
# Details: Jurkat-hPD-1 cells, PE-labeled PD-L1-Ig 20 nM final; read-out: Jurkat HPDL1 PD1 IC50 (uM) (Method 1)
# T1 sequence (Q15116 25-288): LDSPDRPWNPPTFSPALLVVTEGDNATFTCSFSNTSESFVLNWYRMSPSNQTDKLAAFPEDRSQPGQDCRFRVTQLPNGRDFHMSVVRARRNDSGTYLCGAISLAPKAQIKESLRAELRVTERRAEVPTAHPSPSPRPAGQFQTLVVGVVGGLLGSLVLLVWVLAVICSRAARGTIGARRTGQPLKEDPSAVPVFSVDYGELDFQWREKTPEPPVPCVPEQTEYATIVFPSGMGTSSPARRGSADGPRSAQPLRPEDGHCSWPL
row,SMILES,IC50
1,CC(C)C[C@@H]1NC(=O)[C@H](Cc2c[nH]c3ccccc23)NC(=O)[C@H](CC(=O)O)NC(=O)[C@H](Cc2ccc(C(=O)O)cc2)NC(=O)[C@H](Cc2ccc(OCC(=O)O)cc2)NC(=O)CSC[C@@H](C(N)=O)NC(=O)[C@H](CO)NC(=O)[C@H](C(C)C)NC(=O)[C@H](CC2CCCCC2)NC(=O)[C@H](CCN)NC(=O)[C@@H](CC(C)C)NC(=O)[C@H](C)N(C)C(=O)[C@H](C(C)C)NC(=O)[C@H](Cc2ccc(-c3ccccc3)cc2)NC1=O [Compound 1426] ({CH2CO}-Y(Carboxymethyl)[Phe(4-COOH)]DWL[Bip]V[NMeA][dL][Dab][Cha]VSC-NH2; thioether N-14),0.01 µM
2,Cc1cccc(C[C@@H]2NC(=O)[C@H](CC(=O)O)NC(=O)[C@H](Cc3ccc(C(=O)O)cc3)NC(=O)[C@H](Cc3ccc(F)cc3)NC(=O)CSC[C@@H](C(=O)N[C@@H](CCN)C(N)=O)NC(=O)[C@H](CCC(=O)O)NC(=O)[C@H](C(C)(C)O)NC(=O)[C@H](CC3CCCCC3)NC(=O)[C@H](CCN)NC(=O)[C@@H](CC(C)C)NC(=O)[C@H](C)N(C)C(=O)[C@H](Cc3ccc(C(=O)O)cc3)NC(=O)[C@H](Cc3ccc(-c4ccccc4)cc3)NC(=O)[C@H](Cc3ccc(C(=O)O)cc3)NC2=O)c1 [Compound 2207] ({CH2CO}-[Phe(4-F)][Phe(4-COOH)]D[Phe(3-Me)][Phe(4-COOH)][Bip][Phe(4-COOH)][NMeA][dL][Dab][Cha][Val(3-OH)]EC[Dab]-NH2; thioether N-14),0.01 µM
3,CC(=O)NCCCC[C@@H]1NC(=O)[C@H](C(C)C)NC(=O)[C@H](CC2CCCCC2)NC(=O)[C@H](CCN)NC(=O)[C@@H](CC(C)C)NC(=O)[C@H](C)N(C)C(=O)[C@H](CCC(N)=O)NC(=O)[C@H](Cc2ccc(-c3ccccc3)cc2)NC(=O)[C@H](C(C)C)NC(=O)[C@H](Cc2cccc(C)c2)NC(=O)[C@H](CC(=O)O)NC(=O)[C@H](Cc2ccc(OCC(=O)O)cc2)NC(=O)[C@H](Cc2ccc(OCC(=O)O)cc2)NC(=O)CSC[C@@H](C(=O)NCCCN)NC1=O [Compound 2265] ({CH2CO}-Y(Carboxymethyl)Y(Carboxymethyl)D[Phe(3-Me)]V[Bip]Q[NMeA][dL][Dab][Cha]VK(Ac)C-{NH(CH2)3NH2}; thioether N-14),0.02 µM
4,Cc1cccc(C[C@@H]2NC(=O)[C@H](CC(=O)O)NC(=O)[C@H](Cc3cccnc3)NC(=O)[C@H](CN)NC(=O)CSC[C@@H](C(=O)N[C@@H](C)C(N)=O)NC(=O)[C@H](CO)NC(=O)[C@H](C(C)C)NC(=O)[C@H](CC(C)C)NC(=O)[C@H](CC(N)=O)NC(=O)[C@@H](C)NC(=O)[C@H](C)N(C)C(=O)[C@H](C(C)C)NC(=O)[C@H](Cc3ccc(-c4ccccc4)cc3)NC(=O)[C@H](CC(C)C)NC2=O)c1 [Compound 1584] ({CH2CO}-[Dap][3Pal]D[Phe(3-Me)]L[Bip]V[NMeA][dA]NLVSCA-NH2; thioether N-14),0.02 µM
5,CC(C)C[C@@H]1NC(=O)[C@H](CCN)NC(=O)[C@@H](CC(C)C)NC(=O)[C@H](C)N(C)C(=O)[C@H](Cc2ccc(O)cc2)NC(=O)[C@H](Cc2ccc(-c3ccccc3)cc2)NC(=O)[C@H](C(C)C)NC(=O)[C@H](Cc2c[nH]c3ccccc23)NC(=O)[C@H](CC(=O)O)NC(=O)[C@H](Cc2ccc(O)cc2)NC(=O)[C@H](CC(N)=O)NC(=O)CSC[C@@H](C(=O)N[C@@H](C)C(N)=O)NC(=O)[C@H]([C@@H](C)O)NC(=O)[C@H](C(C)C)NC1=O [Compound 1303] ({CH2CO}-NYDWV[Bip]Y[NMeA][dL][Dab]LVTCA-NH2; thioether N-14),0.07 µM
6,CC(C)C[C@@H]1NC(=O)[C@H](CCN)NC(=O)[C@@H](CC(C)C)NC(=O)[C@H](C)N(C)C(=O)[C@H](CCCNC(N)=O)NC(=O)[C@H](Cc2ccc(-c3ccccc3)cc2)NC(=O)[C@H](C(C)C)NC(=O)[C@H](Cc2c[nH]c3ccccc23)NC(=O)[C@H](CC(=O)O)NC(=O)[C@H](Cc2cccc(Cl)c2)NC(=O)[C@H](CC(N)=O)NC(=O)CSC[C@@H](C(=O)N[C@@H](C)C(N)=O)NC(=O)[C@H]([C@@H](C)O)NC(=O)[C@H](C(C)C)NC1=O [Compound 1310] ({CH2CO}-N[Phe(3-Cl)]DWV[Bip][Cit][NMeA][dL][Dab]LVTCA-NH2; thioether N-14),0.11 µM
7,CC(C)C[C@@H]1NC(=O)[C@H](CCCNC(=N)N)NC(=O)[C@@H](Cc2ccccc2)NC(=O)[C@H](C)N(C)C(=O)[C@H](CCCNC(=N)N)NC(=O)[C@H](Cc2ccc(-c3ccccc3)cc2)NC(=O)[C@H](C(C)C)NC(=O)[C@H](Cc2c[nH]c3ccccc23)NC(=O)[C@H](CC(=O)O)NC(=O)[C@H](Cc2ccc(O)cc2)NC(=O)[C@H](Cc2cnc[nH]2)NC(=O)CSC[C@@H](C(=O)NCC(N)=O)NC(=O)[C@H](CO)NC(=O)[C@H](C(C)C)NC1=O [Compound 1031] ({CH2CO}-HYDWV[Bip]R[NMeA][dF]RLVSCG-NH2; thioether N-14),0.09 µM
8,CCC(C)[C@@H]1NC(=O)[C@H](Cc2ccc(-c3ccccc3)cc2)NC(=O)[C@H](CC(C)C)NC(=O)[C@H](Cc2c[nH]c3ccccc23)NC(=O)[C@H](CC(=O)O)NC(=O)[C@H](Cc2ccc(C(=O)O)cc2)NC(=O)[C@H](Cc2ccc(OCC(=O)O)cc2)NC(=O)CSC[C@@H](C(=O)N[C@@H](CC(N)=O)C(N)=O)NC(=O)[C@H]([C@@H](C)O)NC(=O)[C@H](C(C)C)NC(=O)[C@H](CC2CCCCC2)NC(=O)[C@H](CCN)NC(=O)[C@@H](CC(C)C)NC(=O)[C@H](C)N(C)C1=O (stereo partly drawn) [Compound 1922] ({CH2CO}-Y(Carboxymethyl)[Phe(4-COOH)]DWL[Bip][Ile(3ξ)][NMeA][dL][Dab][Cha]VTCN-NH2; thioether N-14),0.04 µM
9,CC(C)C[C@@H]1NC(=O)[C@H](CCN)NC(=O)[C@@H](CC(C)C)NC(=O)[C@@H]2COCCN2C(=O)[C@H](C(C)C)NC(=O)[C@H](Cc2ccc(-c3ccccc3)cc2)NC(=O)[C@H](C(C)C)NC(=O)[C@H](Cc2c[nH]c3ccccc23)NC(=O)[C@H](CC(=O)O)NC(=O)[C@H](Cc2ccc(O)cc2)NC(=O)[C@H](CC(N)=O)NC(=O)CSC[C@@H](C(=O)N[C@@H](C)C(N)=O)NC(=O)[C@H]([C@@H](C)O)NC(=O)[C@H](C(C)C)NC1=O [Compound 1367] ({CH2CO}-NYDWV[Bip]V[Morpholine(3S-CO)][dL][Dab]LVTCA-NH2; thioether N-14),0.39 µM
10,CC(C)C[C@@H]1NC(=O)[C@H](CCN)NC(=O)[C@@H](CC(C)C)NC(=O)[C@H](C)N(C)C(=O)[C@H](CCCNC(=N)N)NC(=O)[C@H](Cc2ccc(-c3ccccc3)cc2)NC(=O)[C@H](C(C)C)NC(=O)[C@H](Cc2cccs2)NC(=O)[C@H](CC(=O)O)NC(=O)[C@H](Cc2ccc(O)cc2)NC(=O)[C@H](CC(N)=O)NC(=O)CSC[C@@H](C(=O)N[C@@H](C)C(N)=O)NC(=O)[C@H]([C@@H](C)O)NC(=O)[C@H](C(C)C)NC1=O [Compound 1218] ({CH2CO}-NYD[2Thi]V[Bip]R[NMeA][dL][Dab]LVTCA-NH2; thioether N-14),0.2 µM
11,CC(C)C[C@@H]1NC(=O)[C@H](Cc2c[nH]c3ccccc23)NC(=O)[C@H](CC(=O)O)NC(=O)[C@H](Cc2ccncc2)NC(=O)[C@H](CN)NC(=O)CSC[C@@H](C(=O)NCC(N)=O)NC[C@H](CO)NC(=O)[C@H](C(C)C)NC(=O)[C@H](CC2CCCCC2)NC(=O)[C@H](CC(N)=O)NC(=O)[C@@H](CC(C)C)NC(=O)[C@H](C)N(C)C(=O)[C@H](C(C)C)NC(=O)[C@H](Cc2ccc(-c3ccccc3)cc2)NC1=O [Compound 1625],0.01 µM
12,CC(C)C[C@@H]1NC(=O)[C@H](Cc2c[nH]c3ccccc23)NC(=O)[C@H](CC(=O)O)NC(=O)[C@H](Cc2ccc(OCC(=O)O)cc2)NC(=O)[C@H](Cc2ccc(OCC(=O)O)cc2)NC(=O)CSC[C@@H](C(=O)NCC(N)=O)NC(=O)[C@H](CO)NC(=O)[C@H](C(C)C)NC(=O)[C@H](CC(C)C)NC(=O)[C@H](CC(N)=O)NC(=O)[C@@H](CC(C)C)NC(=O)[C@H](C)N(C)C(=O)[C@H](C(C)C)NC(=O)[C@H](Cc2ccc(-c3ccccc3)cc2)NC1=O [Compound 1550] ({CH2CO}-Y(Carboxymethyl)Y(Carboxymethyl)DWL[Bip]V[NMeA][dL]NLVSCG-NH2; thioether N-14),0.01 µM
13,CC(C)C[C@@H]1NC(=O)[C@H](CCCN)NC(=O)[C@@H](Cc2csc3ccccc23)NC(=O)[C@H](C)N(C)C(=O)[C@H](CCCNC(=N)N)NC(=O)[C@H](Cc2ccc(-c3ccccc3)cc2)NC(=O)[C@H](C(C)C)NC(=O)[C@H](Cc2c[nH]c3ccccc23)NC(=O)[C@H](CC(=O)O)NC(=O)[C@H](Cc2ccc(O)cc2)NC(=O)[C@H](Cc2ccccc2)NC(=O)CSC[C@@H](C(=O)N[C@@H](C)C(N)=O)NC(=O)[C@H]([C@@H](C)O)NC(=O)[C@H](C(C)C)NC1=O [Compound 1171] ({CH2CO}-FYDWV[Bip]R[NMeA][dBta][Orn]LVTCA-NH2; thioether N-14),0.15 µM
14,Cc1cccc(C[C@@H]2NC(=O)[C@H](CC(=O)O)NC(=O)[C@H](Cc3ccncc3)NC(=O)[C@H](CN)NC(=O)CSC[C@@H](C(=O)N[C@@H](C)C(N)=O)NC(=O)[C@H]([C@@H](C)O)NC(=O)[C@H](C(C)C)NC(=O)[C@H](CC(C)C)NC(=O)[C@H](CCN)NC(=O)[C@@H](CC(C)C)NC(=O)[C@H](C)N(C)C(=O)[C@H](C(C)C)NC(=O)[C@H](Cc3ccc(-c4ccccc4)cc3)NC(=O)[C@H](C(C)C)NC2=O)c1 [Compound 1543] ({CH2CO}-[Dap][4Pal]D[Phe(3-Me)]V[Bip]V[NMeA][dL][Dab]LVTCA-NH2; thioether N-14),0.01 µM
15,CCC(C)[C@@H]1NC(=O)[C@H](Cc2ccc(-c3ccccc3)cc2)NC(=O)[C@H](C(C)C)NC(=O)[C@H](Cc2c[nH]c3ccccc23)NC(=O)[C@H](CC(=O)O)NC(=O)[C@H](Cc2ccc(O)cc2)NC(=O)[C@H](CC(N)=O)NC(=O)CSC[C@@H](C(=O)N[C@@H](CC(N)=O)C(N)=O)NC(=O)[C@H](C(C)O)NC(=O)[C@H](C(C)C)NC(=O)[C@H](CC(C)C)NC(=O)[C@H](CCN)NC(=O)[C@@H](CC(C)C)NC(=O)[C@H](C)N(C)C1=O (stereo partly drawn) [Compound 2069] ({CH2CO}-NYDWV[Bip][Ile(3ξ)][NMeA][dL][Dab]LV[Thr(3ξ)]CN-NH2; thioether N-14),0.1 µM
